What was measured:
PARP1 = PARP1 protein expression by Western blot; format: cell-based, human; details: HCC1937 cells irrespective of BRCA1 status, 4 h
Description: FIGS. 3A-3B. […] (FIG. 3A): the effect of COH29 on PARP1 activity in isogenic pairs of breast (HCC1937) and ovarian (UWB1.289) cancer cell lines expressing mutant or wt BRCA1 (wt=+BRCA1 in each case) was assessed in duplicate using procedures described in Materials & Methods; FIG. 3B: the effect of COH29 on PARP1 protein expression in the isogenic HCC1937/HCC1937+BRCA1 cell lines was assessed by Western blot analysis using anti-human PARP1 antibody as the primary antibody. Loading control is β-actin.
For subcellular fractionation, cells were trypsinized and washed with cold PBS solution twice. […] Following centrifugation at 1,000 g for 5 min, the supernatant was collected (i.e., cytoplasmic fraction) and pellets were washed with the same buffer twice. The washed samples were extracted for 40 min on ice with fractionation buffer containing 0.5% NP-40 for nuclear fraction. All the samples were sonicated and clarified by centrifugation at 16,000 g for 15 min. Protein concentrations of all fractions were determined with Bio-Rad Protein Assay (Bio-Rad Laboratories, Hercules, Calif.). Immunoblotting was performed as described previously (21,22). Briefly, equal amounts of boiled protein samples were subjected to SDS-polyacrylamide gel electrophoresis (PAGE) and transferred onto nitrocellulose membranes (Bio-Rad Laboratories). Membranes were blocked for 1 hour in 3% BSA in Tris buffered saline containing 0.05% Tween 20 (TBST) and incubated for 1 hour with primary antibody (1:500 or 1:1000) diluted in TBST containing 1% BSA. After two washes with TBST, membranes were incubated for 1 hour with horseradish peroxidase-conjugated secondary Abs (1:3000 dilution) at room temperature. The immunoblots were visualized on film with the West-Q chemi-luminescence kit (GenDEPOT, Barker, Tex.).

HCC1937 = test: Cytotoxicity assay, HCC1937; format: cell-based, human; details: HCC1937, BRCA1 mutant, triple negative, 72 h
Description: All cell lines were acquired from the American Type Culture Collection (Manassas, Va., USA). Cells were maintained in RPMI 1640 medium (Mediatech) with 10% fetal bovine serum, 2 mM glutamine, and 100 U of penicillin and 100 μg of streptomycin per ml of medium (Sigma) at 37° C. in 5% CO2. To isolate HCC1937+BRCA1 cells, parental HCC1937 cells were transfected with pcDNA3.1 plasmid expressing full-length BRCA1 cDNA. Stable transfectant clones were selected and used for drug sensitivity assays. […] The restoration of BRCA1 expression in the puromycin-resistant cDNA/transfectant cells was evaluated by Western blot analysis.
The MTT cytotoxicity assay was performed by incubating with MTT and monitoring the MTT formazan formed by viable cells with a microplate reader at a wavelength of 560 nm; the survival ratio was determined using the formula: (Atest−Ablank)/(Acontrol−Ablank)×100%. The cytotoxicity was determined in 96-well plates using the semiautomatic fluorescence-based Digital Imaging Microscopy System (DIMSCAN). DIMSCAN uses digital imaging microscopy to quantify viable cells, which selectively accumulate FDA (fluorescein diacetate; Alfa Aesar, Ward Hill, Mass.). […] Total fluorescence per well was then measured using DIMSCAN, and the results were expressed as the ratio of the fluorescence in treated wells to the fluorescence in untreated wells (survival fraction).

OV90 = test: MTT cytotoxicity assay, OV90; format: cell-based, human; details: OV90, wild-type BRCA1, 72 h; read-out: IC50, mean ± SEM
Description: (§1) The MTT cytotoxicity assay was performed by incubating with MTT and monitoring the MTT formazan formed by viable cells with a microplate reader at a wavelength of 560 nm; the survival ratio was determined using the formula: (Atest−Ablank)/(Acontrol−Ablank)×100%. The cytotoxicity was determined in 96-well plates using the semiautomatic fluorescence-based Digital Imaging Microscopy System (DIMSCAN). DIMSCAN uses digital imaging microscopy to quantify viable cells, which selectively accumulate FDA (fluorescein diacetate; Alfa Aesar, Ward Hill, Mass.). DIMSCAN is capable of measuring cytotoxicity over a 4 log dynamic range by quantifying total fluorescence per well (which is proportional to the number of viable cells) after elimination of the background fluorescence by digital thresholding and eosin Y (Mallinckrodt Baker, Center Valley, Pa.) quenching. Cells were seeded into 96-well plates in 100 μL of complete medium at 2,000 to 5,000 cells per well, depending on cell line growth rate. After overnight incubation, test compound was added to each well at various concentrations in 50 μL of culture medium. […] Total fluorescence per well was then measured using DIMSCAN, and the results were expressed as the ratio of the fluorescence in treated wells to the fluorescence in untreated wells (survival fraction).

HCC1937+BRCA1 = test: Cytotoxicity assay, HCC1937+BRCA1; format: cell-based, human; details: HCC1937 + BRCA1, triple negative, 72 h
Description: All cell lines were acquired from the American Type Culture Collection (Manassas, Va., USA). Cells were maintained in RPMI 1640 medium (Mediatech) with 10% fetal bovine serum, 2 mM glutamine, and 100 U of penicillin and 100 μg of streptomycin per ml of medium (Sigma) at 37° C. in 5% CO2. To isolate HCC1937+BRCA1 cells, parental HCC1937 cells were transfected with pcDNA3.1 plasmid expressing full-length BRCA1 cDNA. Stable transfectant clones were selected and used for drug sensitivity assays. For stable transfection, cells at 30-40% confluence were incubated overnight with […] of plasmid DNA, using FUGENE® 6 transfectin reagent (Roche Molecular Biochemical, Monza, Italy) according to the manufacturer's instructions. Cells were then selected in puromycin (1 μg/ml) (Invitrogen Life Technologies, La Jolla, Calif., USA). After 20 to 30 days, viable puromycin-resistant colonies from HCC1937 transfections were expanded and screened. The clones that stably expressed puromycin and retained growth potential were assayed for BRCA1 expression by Western blot analysis. The restoration of BRCA1 expression in the puromycin-resistant cDNA/transfectant cells was evaluated by Western blot analysis.
The MTT cytotoxicity assay was performed by incubating with MTT and monitoring the MTT formazan formed by viable cells with a microplate reader at a wavelength of 560 nm; the survival ratio was determined using the formula: (Atest−Ablank)/(Acontrol−Ablank)×100%. The cytotoxicity was determined in 96-well plates using the semiautomatic fluorescence-based Digital Imaging Microscopy System (DIMSCAN). DIMSCAN uses digital imaging microscopy to quantify viable cells, which selectively accumulate FDA (fluorescein diacetate; Alfa Aesar, Ward Hill, Mass.). DIMSCAN is capable of measuring cytotoxicity over a 4 log dynamic range by quantifying total fluorescence per well (which is proportional to the number of viable cells) after elimination of the background fluorescence by digital thresholding and eosin Y (Mallinckrodt Baker, Center Valley, Pa.) quenching. […]

A2780-DDDP = test: Cytotoxicity assay, A2780-DDDP; format: cell-based, human; details: cisplatin-resistant, read-out: IC50, mean ± SEM
Description: as §1

TOV112D = test: Cytotoxicity assay, TOV112D; format: cell-based, human; details: read-out: IC50, mean ± SEM
Description: as §1

OVCAR-4 = test: Cytotoxicity assay, OVCAR-4; format: cell-based, human; details: read-out: IC50, mean ± SEM
Description: as §1

KB-Gem = test: Cytotoxicity assay, KB-Gem; format: cell-based, human; details: gemcitabine-resistant, read-out: IC50, mean ± SEM
Description: as §1

KB-7D = test: Cytotoxicity assay, KB-7D; format: cell-based, human; details: cisplatin-resistant, read-out: IC50, mean ± SEM
Description: as §1

UWB1.289 = test: MTT cytotoxicity assay, UWB1.289; format: cell-based, human; details: UWB1.289, BRCA1-defective, 72 h; read-out: IC50, mean ± SEM
Description: as §1

OVCAR-3 = test: Cytotoxicity assay, OVCAR-3; format: cell-based, human; details: read-out: IC50, mean ± SEM
Description: as §1

UWB1.289+BRCA1 = test: Cytotoxicity assay, UWB1.289+BRCA1; format: cell-based, human; details: UWB1.289 + BRCA1 (WT), 72 h; read-out: IC50, mean ± SEM
Description: as §1

SKBR3 = test: Cytotoxicity assay, SKBR3; format: cell-based, human; details: SKBR3, ER− PR(−) HER2+
Description: as §1

[1] = test system: wild-type zebrafish embryos; test: Zebrafish genotoxicity assay; format: in vivo, Danio rerio; details: HU 0-50 mM
Description: The PARP1 activity was determined using the PARP1 Chemiluminescent Assay Kit (BPS Bioscience, San Diego) according to the manufacturer's protocol. Briefly, the ribosylation reaction was carried out with activated DNA in PARP assay buffer using test inhibitor, positive control, substrate control and blank reactions, for 1 hour at 25° C. Detection was by streptavidin-HRP with chemiluminescent substrate A and B read in a luminometer. NZebrafish (Danio rerio) were obtained from zebrafish Core facility of Taipei Medical University and maintained at 28° C. on a 14 h light/10 h dark cycle. Embryos were incubated at 28° C. and different developmental stages were determined as described (25). Wild-type embryos were treated with different concentrations of HU (0, 5, 10, 20, 50 mM) or COH29 (0, 10, 20, 50, 100 μM) at 20 hpf to evaluate the mutagenic effect. Fifteen embryos were treated per well condition. […] Embryos were observed using an Olympus IX70-FLA inverted fluorescence microscope. Images were taken using SPOT digital camera system (Diagnostic Instruments, Sterling Heights, Mich., USA) and assembled with Image) software (26).
To assess the genotoxicity of COH29, wild-type zebrafish embryos were treated from 1 to 7 dpf (day post-fertilization) with a range of doses of COH29 (0-100 μM) and compared to embryos similarly treated with HU (0-50 mM) which is known to cause developmental defects.

Question: How did the PARP1 protein level (PARP1) turn out when C[C@]1(c2nc3c(C(N)=O)cccc3[nH]2)CCCN1 [ABT-888, reference compound] was run?
Answer: Its PARP1 protein level is “significant reduction”.

Question: For N.N.[Cl][Pt][Cl] [Cisplatin], which IC50 (HCC1937) is on record?
Answer: The IC50 was 2460 ± 110 nM.

Question: What about the IC50 (OV90) of the same molecule?
Answer: Its IC50 is 1570 ± 290 nM.

Question: What about the IC50 (HCC1937+BRCA1) of the same molecule?
Answer: The IC50 was 2930 ± 550 nM.

Question: What about the IC50 (A2780-DDDP) of the same molecule?
Answer: Its IC50 is 5.02 ± 1.18 µM.

Question: And the IC50 (TOV112D)?
Answer: The IC50 was 1320 ± 200 nM.

Question: And the IC50 (OVCAR-4)?
Answer: The IC50 was 2250 ± 250 nM.

Question: What about the IC50 (KB-Gem) of the same molecule?
Answer: Its IC50 is 380 ± 30 nM.

Question: What about the IC50 (KB-7D) of the same molecule?
Answer: Its IC50 is 7.5 ± 0.3 µM.

Question: And the IC50 (UWB1.289)?
Answer: The IC50 was 1430 ± 870 nM.

Question: And the IC50 (OVCAR-3)?
Answer: The IC50 was 1640 ± 40 nM.

Question: What about the IC50 (UWB1.289+BRCA1) of the same molecule?
Answer: The IC50 was 7.4 ± 2.02 µM.

Question: What about the IC50 (SKBR3) of the same molecule?
Answer: Its IC50 is 990 ± 240 nM.

Question: Which results are given for NC(=O)NO [HU, hydroxyurea, reference compound]?
Answer: number of mutant embryos [1]: dose-dependent increase; developmental defects ([1]; embryos treated 1 to 7 dpf, COH29 0-100 μM): caused defects in eyes and heart by 4 dpf
